According to publication PMC8950706, “Influence of Substitutions in the Binding Motif of Proline-Rich Antimicrobial Peptide ARV-1502 on 70S Ribosome Binding and Antimicrobial Activity” (International Journal of Molecular Sciences, 2022):
Structures can show the parent of a compound that is named as a salt.

Columns and labels:
E. coli 70S ribosome = test: Competitive fluorescence polarization assay against Cf-ARV-1502 (Ki); type: binding, E. coli BW25113; details: 20 nmol/L Cf-ARV-1502, 0.5 µmol/L ribosome, 28 °C, 90 min + 90 min, Ki calculated from IC50; for Ki: read-out: Ki (nmol/L), competition with Cf-ARV-1502
Experimental: E. coli 70S ribosomes were prepared using a previously described protocol that was slightly modified. Briefly, E. coli BW25113 was cultivated in Luria-Bertani (LB) medium and cells were harvested after reaching an optical density of ~4 at 600 nm by centrifugation (5000× g, 15 min, 4 °C, Rotor JLA 8.100, Avanti J-20 XP, Beckmann Coulter, Krefeld, Germany). The cell pellets were frozen and stored at −80 °C. Cells were resuspended in ribosome buffer (2 mL/g cells; 20 mmol/L HEPES-KOH, 6 mmol/L MgCl2, 30 mmol/L NH4Cl, 4 mmol/L 2-mercaptoethanol, pH 7.6). Lysozyme (0.25 g/L cell suspension) was added, and the mixture was incubated on ice for 30 min. Cells were disrupted using the bead mill homogenizer FastPrep-24™ 5G (40 s, 4 m/s, 6 cycles, MP Biomedicals Germany GmbH, Eschwege, Germany) and zirconia/silica beads (0.1 mm diameter). The lysate was centrifuged (1500× g, 5 min, 4 °C, Rotor S4180, Allegra 21R, Beckmann Coulter) and the supernatant was incubated with DNase (5 U/mL) on ice for 60 min.
Dissociation and inhibitory constants were determined in black 384-well-plates (Greiner Bio-One GmbH, Frickenhausen, Germany) blocked with 0.5% (w/v) casein in phosphate buffered saline (PBS, 8.8 mmol/L Na2HPO4×12 H2O, 1.2 mmol/L KH2PO4, 0.3 mol/L NaCl, pH 7.4) containing 0.05% (w/v) Tween® 20 (PBST) overnight at 4 °C and washed three times with PBST.
Ribosome solution was added (10 µmol/L) and the plate was incubated after centrifugation (2 min, 500× g, Rotor S2096, Allegra^TM 21R, Beckmann Coulter) at 28 °C for 90 min. Cf-labeled peptide was added (10 µL; final concentration of 20 nmol/L; final ribosome concentration of 0.5 µmol/L) and the plate was centrifuged and incubated again (90 min, 28 °C, dark). […] Kd and IC50 values were calculated by fitting the data with a variable slope parameter [y = min + (max − min)/(1 + (x/Kd) ^−Hill slope) ] using SigmaPlot 13 (Systat Software Inc., San Jose, CA, USA). The obtained IC50 values were used to calculate the Ki values.

E. coli BW25113 = test: Checkerboard assay (FICI); type: cell-based, Escherichia coli; details: E. coli BW25113, 25% MHB2; synergy FICI ≤ 0.5, antagonism FICI ≥ 4; Table S6
Experimental: Synergy was tested in sterile 96-well plates (polystyrene F-bottom, Greiner Bio-One GmbH) using a total volume of 100 μL per well. […] Plates were incubated (37 °C, 20 h) and the optical density recorded at 595 nm using a microplate reader (Victor3, Perkin Elmer Inc., Waltham, MA, USA). The fractional inhibitory concentration index (FICI) was calculated by the equation FICI = […] = (A/MICA) + (B/MICB), where MICA/B are the MICs of an antimicrobial peptide (A) and one of the three tested antibiotics (B) alone and A and B are the MICs of combined antimicrobials. Synergy was defined as FICI ≤ 0.5, antagonism as FICI ≥ 4 and additive or indifference as FICI between 0.5 and 4.

Row | Compound | Ki (E. coli 70S ribosome) | Ki (nmol/L), competition with Cf-ARV-1502 (E. coli 70S ribosome) | Ki (nmol/L), competition with Cf-ARV-1502 (E. coli 70S ribosome; listed as kanamycin) | Checkerboard assay (FICI), antibiotic combined with peptide (E. coli BW25113) | Ki (nmol/L), competition with Cf-ARV-1502 (E. coli 70S ribosome; listed as streptomycin)
1 | O=C(N[C@H](CO)[C@H](O)c1ccc([N+](=O)[O-])cc1)C(Cl)Cl [Chloramphenicol] | 1700 ± 481 nmol/L | – | – | – | –
2 | CC[C@H]1OC(=O)[C@H](C)[C@@H](O[C@H]2C[C@@](C)(OC)[C@@H](O)[C@H](C)O2)[C@H](C)[C@@H](O[C@@H]2O[C@H](C)C[C@H](N(C)C)[C@H]2O)[C@](C)(O)C[C@@H](C)C(=O)[C@H](C)[C@@H](O)[C@]1(C)O [Erythromycin] | 23 ± 1.6 nmol/L | – | – | – | –
3 | NC[C@H]1O[C@H](O[C@H]2[C@H](O)[C@@H](O[C@H]3O[C@H](CO)[C@@H](O)[C@H](N)[C@H]3O)[C@H](N)C[C@@H]2N)[C@H](O)[C@@H](O)[C@@H]1O [Kanamycin, kanamycin sulfate] | – | no fit | did not affect the binding of Cf-ARV-1502 | neither synergistic nor antagonistic effects | –
4 | [H]/N=C(/N)N[C@H]1[C@H](O)[C@@H](O)[C@H](O[C@@H]2O[C@@H](C)[C@](O)(C=O)[C@H]2O[C@@H]2O[C@@H](CO)[C@H](O)[C@@H](O)[C@@H]2NC)[C@@H](N/C(N)=N\[H])[C@@H]1O [Streptomycin] | – | no fit | – | – | did not affect the binding of Cf-ARV-1502
